Compound `COC1([N+](=O)[O-])C=C([N+](=O)[O-])C=CC1O` (configuration not stated) showed a melting point of 68 to 70 °C. In turn, `CN1CCN(CC2(O)CC=Cc3ncccc32)CC1` (configuration not stated) had a melting point of 126 to 127 °C.

As for `O=C(Nc1c(C(O)(C(F)(F)F)C(F)(F)F)ccc2ccccc12)c1cccc(Br)c1`, the melting point was in the range of 184 to 185 °C. As for `CC(C)(C)OC(=O)NCc1ccc2cc(O)ccc2c1`, the figure is 173 to 174 °C.

In turn, `N#Cc1cccc2c1NCCC2` registered a melting point of 75 to 76 °C. Consider `COCCOCOc1ccc2cc(C(=O)O)ccc2c1`, for which the melting point was 110 °C. `CCOC(=S)SCc1cc(OC)nc(N)n1`: the melting point lay in the range of 91 to 93 °C. In turn, `CC(=O)Oc1ccc(Cl)c2c(=O)c3ccccc3sc12` showed a melting point of 141 to 142 °C. The same measure for `N#CCCCCC(=NO)c1ccc(Br)cc1`: 86.5 to 88 °C.

As to `NC(=O)Cc1ccc(OCCN(CC(=O)c2ccc(OCc3ccccc3)c(OCc3ccccc3)c2)Cc2ccccc2)cc1`, the melting point is 99 to 101 °C. Turning to `CN1CCC(=C2c3ccccc3[C@@H](O)[C@@H](O)c3ccccc32)CC1`, the melting point was in the range of 248 to 255 °C.

Turning to `COC(=O)c1cccnc1C(=O)c1ccccc1`, the melting point was 74 °C.

`O=C1c2cccc(-n3c(=O)[nH]c4cnccc4c3=O)c2C2CC3(CCN12)OCCO3` (configuration not stated) registered a melting point of 204 °C. Regarding `Nc1ccc(C(=O)Cn2c(-c3nonc3NCCC(=O)O)nc3ccccc32)cc1`, the melting point was in the range of 174 to 177 °C. As for `O=C(O)COc1ccc(SCc2ccc(OCc3cc(Cl)cc(Cl)c3)cc2)c2c1CCC2`, the melting point was in the range of 134 to 135 °C. On to `C[C@@H](NS(=O)(=O)c1ccc(Cl)cc1)[C@](O)(Cn1cncn1)c1ccc(Cl)cc1Cl` (relative stereo), for which the melting point lay within 160 to 165 °C. As for `Cc1cc(C)c2c(c1)C=C(/C=C/C=C/C=C/C(=O)O)C(C)(C)O2`, the figure is 200 to 202 °C; as for `CCN(C)C(=O)N(C)C(=O)Nc1ccccc1`, 88.5 to 90.5 °C; as for `ON=C1CCc2cc(Cl)ccc21`, 181 to 182 °C.

Take `COc1cc(Oc2cccc(OC(F)(F)F)c2)nc(C(=O)O)c1`: the melting point was in the range of 64 to 66 °C. The same measure for `CC1(C)C=C(n2cncn2)c2cccc(OCc3c(Cl)ccc(S(=O)(=O)N4CCC[C@H]4C(=O)O)c3Cl)c2N1`: 146 °C; for `CCOC(=O)N1CCN(c2ccc(C3=NNC(=O)CC3C)cc2Cl)CC1` (configuration not stated): 154 to 156 °C. For the compound `COc1cc(CN2CCN(Cc3ccc(NC(=O)C4=Cc5cc(-c6ccc(C)cc6)ccc5CC4)cc3)CC2)cc(OC)c1OC`, the melting point was in the range of 143 to 144 °C.

The compound `N#Cc1cnc2cc(C=O)sc2c1Cl` gave a melting point of 188 to 189 °C.

Take `O=[N+]([O-])CC(SC(=S)N1CCCC1)c1ccccc1` (configuration not stated): the melting point lay within 116 to 120 °C. The compound `CC1(C)CCN(c2ccc(-c3nc(C(=O)Nc4nccs4)c(-c4ccc(Cl)cc4)[nH]3)cc2)CC1` registered a melting point of 150 to 154 °C. As for `COc1cccc(OC)c1/C=C/S(=O)(=O)CS(=O)(=O)/C=C/c1c(OC)cccc1OC`, the figure is 118 to 120 °C; as for `CCOCc1nc2c(N)nc3c(c2n1CCCCS(C)(=O)=O)CCCC3`, 170 to 171 °C; as for `COc1ccc(-c2ccc(Cl)cc2)c(COc2ccc(-c3nc4cc(C(=O)O)ccc4n3C3CCCCC3)cc2)c1`, 248 to 249 °C. As for `CC(CC(O)(CNc1ccc2c(c1)COC2=O)C(F)(F)F)c1ccccc1` (configuration not stated), the figure is 110 °C. As for `O=C1CCc2c1cccc2C(F)(F)F`, the figure is 32 to 36 °C; as for `CCN(CC)C(=O)Oc1c2c(nn1-c1ccc(F)cc1)CCc1cc(F)ccc1-2`, 141 to 142 °C; as for `N#Cc1ccc(Nn2cnnc2)cc1-c1ccc(OCc2ccccc2)cc1`, 180 to 182 °C. In turn, `CC(C)(C)OC(=O)[C@H]1C[C@H](C(=O)Nc2ccccc2)[C@@H](c2ccccc2F)N1C(=O)CNC(=O)Nc1cccc(C(=O)O)c1` (racemic) registered a melting point of 170 °C. The same measure for `C=C1c2ccccc2CC(=NO)Cc2ccccc21`: 119 to 123 °C. `O=C(Oc1ccccc1N1c2ccccc2Sc2ccccc21)c1ccccc1` registered a melting point of 144 to 148 °C. For `C=CCc1ccccc1OCC(O)CNC1CCc2ccccc2C1` (configuration not stated), the melting point was in the range of 70 to 72 °C. The same measure for `O=C(O)COCCCCN(c1cnc(-c2ccccc2)c(-c2ccccc2)n1)C1CCCC1`: 101 to 103 °C; for `CCOC(=O)c1cc2cccnc2nc1C(=O)OCC`: 83 to 85 °C; for `Cc1cccc(-c2nc3cccnn3c2-c2ccnc(NC(=O)N3CCCCC3)c2)c1`: 173 to 175 °C. Consider `COc1ccc(-c2nc3cnccc3[nH]2)c(OCCCCl)c1`, for which the melting point lay in the range of 174 to 176 °C.

In turn, `CCc1cc2c(s1)N(C)C(=O)C(OC(=O)Nc1cccc(C)c1)N=C2c1ccccc1Cl` (configuration not stated) registered a melting point of 181 to 182 °C.

Compound `O=C1CCN(Cc2ccccc2)C(=O)C1=C1SCCS1` had a melting point of 148 to 150 °C. Compound `CCCOc1ccccc1-c1nc(O)cc(CC)n1` registered a melting point of 97 to 98.5 °C. As for `O=C1NC(=NC2CCCC2)C(c2ccc3[nH]ccc3c2)N1c1ccc2[nH]cnc2c1` (configuration not stated), the melting point was found to be 210 °C.

For `CNc1ccc(C(=O)N2CCN(CCc3ccc(SC)cc3)CC2)cc1`, the melting point was 120 to 121 °C. Compound `CC(=O)Nc1ncc(SCC(=O)OC(C)(C)C)s1` displayed a melting point of 162 to 163 °C. Regarding `O=C1C2C3C=CC(C3)C2C(=O)N1OS(=O)(=O)CCSC1CCCCC1` (configuration not stated), the melting point fell in the range of 96 to 98 °C. The same measure for `CC1C(c2ccc([N+](=O)[O-])cc2)CC(=O)N1C` (configuration not stated): 94 to 95 °C; for `CN(C)C(=O)COC[C@@H]1CC(c2ccc(-c3ccc(N4C[C@H](Cn5ccnn5)OC4=O)cc3F)cn2)=NO1`: 166 to 168 °C; for `OCC1OC(n2cnc3c(NC4CCCC4O)ncnc32)C(O)C1O` (configuration not stated): 163 to 164 °C. In the case of `COc1ccc(S(=O)(=O)N(CCO)c2ccc(Cl)cc2C(O)c2ccccc2Cl)cc1OC` (configuration not stated), the melting point was found to be 86.2 °C. As to `CC(C)(C)c1ccc2c(c1)ncn2-c1cccc(Br)n1`, the melting point lay in the range of 98 to 100 °C. The compound `CC(=O)c1cccc(Nc2nnc(-c3cccc(Oc4cccc(C(F)(F)F)c4)c3)s2)c1` registered a melting point of 130 to 133 °C. For the compound `N#CC(Cc1cccc2c1OCO2)C(=O)O` (configuration not stated), the melting point worked out at 118 °C.

`CCOC(=O)NN=Cc1cc(-n2c(=O)cc(C(F)(F)F)n(C)c2=O)ccc1Cl` gave a melting point of 111 to 116 °C. As for `O=c1[nH]c2ccc(C3=NOC(CN4CCC(Cc5ccc(F)cc5)C(O)C4)C3)cc2o1` (configuration not stated), the figure is 224 to 233 °C. With `COc1ccc2c(n1)C1(CO2)C(=O)N(Cc2ccc(Cl)s2)c2ccccc21` (configuration not stated), the melting point was 130 to 132 °C. Regarding `CC(=O)CCc1cc(-c2ccncc2)sc1-c1ccncc1`, the melting point was in the range of 162 to 163 °C.

For `CCCOc1cccc(C2(c3cc(C(=O)CC)n(CC)c3)N=C(N)N(C)C2=O)c1` (configuration not stated), the melting point was 95 °C. Regarding `CC(C)C=C1CCC2(C1)C(=O)C=C(OC(C)C)CC2C` (configuration not stated), the melting point was 88 to 91 °C. `O=C(O)c1cnn2c(C(F)F)cc(-c3ccc(C(F)(F)F)c(OCC(F)(F)F)c3)nc12` showed a melting point of 261 °C.

For orientation: melting point means the temperature, or range, at which the solid turns liquid.

Values taken from a melting point compilation (Tetko et al.; mined from patent text by program, amines drawn as free bases though some values may be those of a salt).
